Laboratory results from patent US10292412B2, “High solubility natural sweetener compositions” (KRAFT FOODS GLOBAL BRANDS LLC, priority 2012, dated 2019).
Several values for one entry are separate records, joined by “and”; a condition that tells them apart may be missing. Equal values may be shown once.

Legend:
[1] = Example 2: solubility of rebaudioside A in liquid concentrates with varying water, acid and alcohol; format: physicochemical; set-up: scale not given here
Procedure: Liquid concentrate formulations were prepared including varying levels of rebaudioside A, water, alcohol, and acid. The solubility was measured at various concentrations of each of the components and the results are included in the tables below: […]

[2] = Example 6: solubility rating of rebaudioside A liquid concentrate after 33 months at 35° F.; format: physicochemical; conditions: water 62.27%, Citric Acid 16.96%, Potassium Citrate 1.4%, Flavor (80%-90% Ethanol) 11%, Reb A 4.4%, Malic Acid 3.89%, Shade 0.08%
Procedure: A liquid concentrate sample was prepared using rebaudioside A from Cargill. Samples were measured for solubility as defined in sections 46-47. The samples were rated as 3 on the scale after 33 months at 35° F. The formula is included in the table below: […]

Response 1 Solubility ([1]; Water/Phosphoric Acid/Ethanol (190 Proof)/RebA 39.10/39.10/15.99/5.82 ml): Insoluble
Response 1 Solubility ([1]; Water/Phosphoric Acid/Ethanol (190 Proof)/RebA 47.96/0.00/47.96/4.08 ml): 1
Response 1 Solubility ([1]; Water/Phosphoric Acid/Ethanol (190 Proof)/RebA 47.96/47.96/0.00/4.08 ml): Insoluble
Response 1 Solubility ([1]; Water/Phosphoric Acid/Ethanol (190 Proof)/RebA 61.63/0.00/30.81/7.56 ml): 4
Response 1 Solubility ([1]; Water/Phosphoric Acid/Ethanol (190 Proof)/RebA 61.63/30.81/0.00/7.56 ml): Insoluble
Response 1 Solubility ([1]; Water/Phosphoric Acid/Ethanol (190 Proof)/RebA 62.21/15.99/15.99/5.82 ml): 5
Response 1 Solubility ([1]; Water/Phosphoric Acid/Ethanol (190 Proof)/RebA 66.26/0.00/33.13/0.60 ml): 1
Response 1 Solubility ([1]; Water/Phosphoric Acid/Ethanol (190 Proof)/RebA 92.44/0.00/0.00/7.56 ml): 5
Response 1 Solubility ([1]; Water/Phosphoric Acid/Ethanol (190 Proof)/RebA 99.40/0.00/0.00/0.60 ml): 3 and 2
Response 1 Solubility ([1]; Water/Tartaric Acid/Ethanol (190 Proof)/RebA 18.70369333/21.97/51.77/7.56 ml): 1
Response 1 Solubility ([1]; Water/Tartaric Acid/Ethanol (190 Proof)/RebA 19.2674479/6.63/71.76/2.34 ml): 2
Response 1 Solubility ([1]; Water/Tartaric Acid/Ethanol (190 Proof)/RebA 19.2674479/14.30/62.35/4.08 ml): 2
Response 1 Solubility ([1]; Water/Tartaric Acid/Ethanol (190 Proof)/RebA 30.1664432/27.48/41.75/0.60 ml): 1
Response 1 Solubility ([1]; Water/Tartaric Acid/Ethanol (190 Proof)/RebA 30.81333333/4.93/56.70/7.56 ml): 2
Response 1 Solubility ([1]; Water/Tartaric Acid/Ethanol (190 Proof)/RebA 33.13173333/0.00/66.26/0.60 ml): 1
Response 1 Solubility ([1]; Water/Tartaric Acid/Ethanol (190 Proof)/RebA 33.2952179/19.41/41.47/5.82 ml): 1
Response 1 Solubility ([1]; Water/Tartaric Acid/Ethanol (190 Proof)/RebA 37.40738667/29.15/25.88/7.56 ml): 1
Response 1 Solubility ([1]; Water/Tartaric Acid/Ethanol (190 Proof)/RebA 39.9320216/13.74/45.72/0.60 ml): 1
Response 1 Solubility ([1]; Water/Tartaric Acid/Ethanol (190 Proof)/RebA 47.9588/0.00/47.96/4.08 ml): 1
Response 1 Solubility ([1]; Water/Tartaric Acid/Ethanol (190 Proof)/RebA 49.4338911/26.16/22.06/2.34 ml): 1
Response 1 Solubility ([1]; Water/Tartaric Acid/Ethanol (190 Proof)/RebA 49.51702667/12.11/30.81/7.56 ml): 1
Response 1 Solubility ([1]; Water/Tartaric Acid/Ethanol (190 Proof)/RebA 57.8023437/16.05/22.06/4.08 ml): 1
Response 1 Solubility ([1]; Water/Tartaric Acid/Ethanol (190 Proof)/RebA 60.3328864/39.06/0.00/0.60 ml): 1
Response 1 Solubility ([1]; Water/Tartaric Acid/Ethanol (190 Proof)/RebA 61.92/9.00/25.00/4.08 ml): 2
Response 1 Solubility ([1]; Water/Tartaric Acid/Ethanol (190 Proof)/RebA 65.18/8.00/21.00/5.82 ml): 3
Response 1 Solubility ([1]; Water/Tartaric Acid/Ethanol (190 Proof)/RebA 65.44/8.00/19.00/7.56 ml): 4
Response 1 Solubility ([1]; Water/Tartaric Acid/Ethanol (190 Proof)/RebA 65.4874479/6.63/22.06/5.82 ml): 4
Response 1 Solubility ([1]; Water/Tartaric Acid/Ethanol (190 Proof)/RebA 66.26346667/0.00/33.13/0.60 ml): 1
Response 1 Solubility ([1]; Water/Tartaric Acid/Ethanol (190 Proof)/RebA 68.22072/24.22/0.00/7.56 ml): 2
Response 1 Solubility ([1]; Water/Tartaric Acid/Ethanol (190 Proof)/RebA 71.18/16.00/7.00/5.82 ml): 2
Response 1 Solubility ([1]; Water/Tartaric Acid/Ethanol (190 Proof)/RebA 75.92/3.00/17.00/4.08 ml): 4
Response 1 Solubility ([1]; Water/Tartaric Acid/Ethanol (190 Proof)/RebA 75.92/12.00/8.00/4.08 ml): 3
Response 1 Solubility ([1]; Water/Tartaric Acid/Ethanol (190 Proof)/RebA 76.18/11.00/7.00/5.82 ml): 4
Response 1 Solubility ([1]; Water/Tartaric Acid/Ethanol (190 Proof)/RebA 77.0697916/18.85/0.00/4.08 ml): 2
Response 1 Solubility ([1]; Water/Tartaric Acid/Ethanol (190 Proof)/RebA 78.92/5.00/12.00/4.08 ml): 4
Response 1 Solubility ([1]; Water/Tartaric Acid/Ethanol (190 Proof)/RebA 84.92/3.00/8.00/4.08 ml): 5
Response 1 Solubility ([1]; Water/Tartaric Acid/Ethanol (190 Proof)/RebA 86.3744288/13.02/0.00/0.60 ml): 1
Response 1 Solubility ([1]; Water/Tartaric Acid/Ethanol (190 Proof)/RebA 92.44/0.00/0.00/7.56 ml): 5
Response 1 Solubility ([1]; Water/Tartaric Acid/Ethanol (190 Proof)/RebA 99.3952/0.00/0.00/0.60 ml): 2
Response 1 Solubility ([1]; Water/acid/alcohol/RebA 96.67/0.00/0.00/3.33 ml): 5
Response 1 Solubility ([1]; Water/acid/alcohol/RebA 97.01/0.00/0.00/2.99 ml): 5
Response 1 Solubility ([1]; Water/acid/alcohol/RebA 97.34/0.00/0.00/2.66 ml): 5
Response 1 Solubility ([1]; Water/acid/alcohol/RebA 97.67/0.00/0.00/2.33 ml): 5
Response 1 Solubility ([1]; Water/acid/alcohol/RebA 98.00/0.00/0.00/2.00 ml): 5
Response 1 Solubility ([1]; Water/acid/alcohol/RebA 98.34/0.00/0.00/1.66 ml): 5
Response 1 Solubility ([1]; Water/acid/alcohol/RebA 98.67/0.00/0.00/1.33 ml): 5
Response 1 Solubility ([1]; Water/acid/alcohol/RebA 99.00/0.00/0.00/1.00 ml): 5
Response 1 Solubility ([1]; Water/acid/alcohol/RebA 99.33/0.00/0.00/0.67 ml): 2
Response 1 Solubility ([1]; Water/acid/alcohol/RebA 99.67/0.00/0.00/0.33 ml): 1
Structure (SMILES): C=C1C[C@@]23CC[C@H]4[C@@](C)(CCC[C@@]4(C)C(=O)O[C@@H]4O[C@H](CO)[C@@H](O)[C@H](O)[C@H]4O)[C@@H]2CC[C@]1(O[C@@H]1O[C@H](CO)[C@@H](O)[C@H](O[C@@H]2O[C@H](CO)[C@@H](O)[C@H](O)[C@H]2O)[C@H]1O[C@@H]1O[C@H](CO)[C@@H](O)[C@H](O)[C@H]1O)C3 [Reb A, rebaudioside A]
solubility rating on the scale [2]: 3 (a solubility of 3 may be represented by 1% to 5% v/v of pellet)
